The values that follow come from patent US5948808A, “Indole-3-carbinol, diindolylmethane and substituted analogs as antiestrogens” (The Texas A&M University System, priority 1997, dated 1999).

Where two headings read alike, the source gives them in different places.

The test system of data set [1] is MCF-7 cells. In words: Effect of compounds on MCF-7 proliferation (E2-induced growth). In kind it is cell-based. Particulars: Homo sapiens, MCF7, 144 h, with E2 (1 nM), 6 days. On the procedure:
MCF-7 cells (50,000 per well) were grown in six-well plates in DME-F12 medium as described in Liu, et al., Mol. Cell Endocrinol, 87:19-28, 1992. The cells were given fresh medium plus the compounds being tested every other day. After 6 days of treatment, the cells were harvested and counted with a Coulter counter (Coulter Electronics, Hialeah, Fla.) as described by Liu et al., J. Natl. Cancer Inst., 86. 1758-1765, 1994; Tiwari et al., J. Natl, Cancer Inst. 86, 126-131, 1994. In some cases, 17-β-estradiol (E2) (1×10^-9 M) was also added in combination with the IC3 or DIM analogs.
__________________________________________________________________________
EFFECTS OF DIFFERENT CONCENTRATIONS OF I3C
AND SUBSTITUTED ANALOGS ON THE GROWTH
OF MCF-7 CELLS IN THE PRESENCF OF E2
% of E2-Induced Response (Conc. of I3C Analogs)
EFFECTS OF DIFFERENT CONCENTRATIONS OF DIM
AND SUBSTITUTED ANALOGS ON THE
GROWTH OF MCF-7 CELLS IN THE PRESENCE OF E2
% of E2-Induced Response (Conc. of DIM Analogs)

In data set [2] the test system is mammary tumors. Particulars: oral, 20 hours prior to DMBA; cited from earlier work.
Data set [3] concerns estrogen-regulated tumors. Particulars: cited from earlier work.
The test system of data set [4] is DMBA-induced mammary tumor. Particulars: dietary I3C; 20% Brussels sprouts; cited from earlier work.
The test system of data set [5] is DMBA-induced mammary tumors. In words: Tumor growth in DMBA-induced mammary carcinoma model. In kind it is in vivo, Sprague-Dawley rats. As to conditions: 10 treatments by gavage 5 mg/kg every other day, sacrificed day 21; mean ± standard error.
The test system of data set [6] is EROD. In words: EROD in rats of the DMBA-induced mammary carcinoma model. Particulars: 10 treatments by gavage 5 mg/kg every other day, sacrificed day 21; mean ± standard error. The class given is in vivo, Sprague-Dawley rats.
The nature of data set [7]: Toxic endpoints (organ weights) in rats of the DMBA-induced mammary carcinoma model. In kind it is in vivo, Sprague-Dawley rats. Particulars: 10 treatments by gavage 5 mg/kg every other day, sacrificed day 21, mean ± standard error; for Uterine Wet Weight: control 0.182 ± 0.016; for Liver Weight: control 4.07 ± 0.19.
Where [8] appears, read: read-out: % of E2-Induced Response (Conc. of DIM Analogs).
[9] abbreviates: read-out: % of E2-Induced Response (Conc. of I3C Analogs).

On to `Clc1ccc2[nH]cc(Cc3c[nH]c4ccc(Cl)cc34)c2c1` [5-Chloro-DIM, 5,5'-dichloro-diindolylmethane], for which, in data set [1] (setting [8]), the activity at 0.01 µM amounted to 98.4 ± 11.2%, the activity at 0.1 µM amounted to 98.3 ± 8.34%, the activity at 1 µM was 87.3 ± 5.98% and the activity at 5 µM was 0.75 ± 0.1%. The activity at 10 µM in data set [1] (setting [8]) was 0.99 ± 0.27%.

Take `Cc1c(CO)c2ccccc2n1C` [1,2-Dimethyl-I3C]: in data set [1] (setting [9]), the activity at 0.1 µM was 98 ± 5.68%, the activity at 1 µM was 94.4 ± 7.73%, the activity at 10 µM turned out to be 65.9 ± 2.86% and the activity at 50 µM stood at 0.35 ± 0.24%. The activity at 100 µM in data set [1] (setting [9]) was 0.42 ± 0.14%.

With `OCc1c[nH]c2ccccc12` [I3C, indole 3-carbinol, reference compound], the “occurrence of mammary tumors (in words)” value in data set [2] is “inhibited the occurrence of mammary tumors”. Further, in data set [1] (setting [9]), the activity at 0.1 µM stood at 100 ± 5.7%, the activity at 1 µM amounted to 96.3 ± 3.23%, the activity at 10 µM came to 83.9 ± 2.46% and the activity at 50 µM was 36.9 ± 0.65%. In data set [1] (setting [9]), the activity at 100 µM turned out to be 8.15 ± 1%. For the same compound, the “formation or growth of estrogen-regulated tumors (in words)” value in data set [3] (rodent mammary, endometrium and uterus) is reported as “inhibit formation or growth of estrogen-regulated tumors”. In addition, the “mammary carcinogenesis (in words)” value in data set [3] (rodent models) is on record as “inhibits mammary carcinogenesis in rodent models”. In addition, the “DMBA-induced mammary tumor formation and progression (in words)” value in data set [4] is “inhibited DMBA-induced mammary tumor formation and progression”.

Take `Fc1ccc2[nH]cc(Cc3c[nH]c4ccc(F)cc34)c2c1` [5-Fluoro-DIM, 5,5'-difluoro-diindolylmethane]: in data set [1] (setting [8]), the activity at 0.01 µM was 90.3 ± 2.5%, the activity at 0.1 µM was 103 ± 2.63%, the activity at 1 µM came out at 77.1 ± 3.51% and the activity at 5 µM was 35.7 ± 5.13%. The activity at 10 µM in data set [1] (setting [8]) was 8.46 ± 1.17%. Also, in data set [5], the “Tumor Volume” value came out at 35.8 ± 16.6 % Control and the “Tumor Weight” value is 45.0 ± 20.0 % Control. This compound registered an EROD in data set [6] of 157.6 ± 22.1 % Control. For the same compound, in data set [7], the “Uterine Wet Weight” value is 0.208 ± 0.044 % body weight and the “Liver Weight” value came out at 4.30 ± 0.29 % body weight.

`Brc1ccc2[nH]cc(Cc3c[nH]c4ccc(Br)cc34)c2c1` [5-Bromo-DIM, 5,5'-dibromo-diindolylmethane]: in data set [1] (setting [8]), the activity at 0.01 µM was 99.03 ± 0.49%, the activity at 0.1 µM turned out to be 106 ± 3.38%, the activity at 1 µM amounted to 75 ± 1.35% and the activity at 5 µM came out at 9.92 ± 0.58%. Further, the activity at 10 µM in data set [1] (setting [8]) worked out at 0.3 ± 0.04%.

Turning to `OCc1c[nH]c2ccc(Cl)cc12` [5-Chloro-I3C, 5-chloro-indole-3-carbinol], in data set [1] (setting [9]), the activity at 0.1 µM was determined as 94 ± 11.2%, the activity at 1 µM worked out at 92.4 ± 3.14%, the activity at 10 µM was 82.2 ± 4.55% and the activity at 50 µM was determined as 29.8 ± 5.98%. The activity at 100 µM in data set [1] (setting [9]) was found to be 1.02 ± 0.22%.

Turning to `OCc1c[nH]c2ccc(Br)cc12` [5-Bromo-I3C, 5-bromo-indole-3-carbinol], in data set [1] (setting [9]), the activity at 0.1 µM came out at 96.3 ± 6.97%, the activity at 1 µM was 97.3 ± 6.33%, the activity at 10 µM came out at 94.4 ± 2.47% and the activity at 50 µM amounted to 59.6 ± 1.05%. In addition, in data set [1] (setting [9]), the activity at 100 µM is 14.9 ± 0.72%.

As to `O=[N+]([O-])c1ccc2[nH]cc(CO)c2c1` [5-Nitro-I3C], in data set [1] (setting [9]), the activity at 0.1 µM stood at 94.7 ± 2.05%, the activity at 1 µM was determined as 92.7 ± 3.89%, the activity at 10 µM is 44.2 ± 3.34% and the activity at 50 µM was 1.71 ± 0.06%. In addition, the activity at 100 µM in data set [1] (setting [9]) worked out at 0.39 ± 0.06%.

`c1ccc2c(Cc3c[nH]c4ccccc34)c[nH]c2c1` [DIM, 3,3'diindolylmethane, reference compound]: the “occurrence of mammary tumors (in words)” value in data set [2] is recorded as “inhibited the occurrence of mammary tumors”. For the same compound, in data set [1] (setting [8]), the activity at 0.01 µM turned out to be 107 ± 8.43%, the activity at 0.1 µM was found to be 97.3 ± 3.56%, the activity at 1 µM was 77 ± 5.16% and the activity at 5 µM came to 22.5 ± 2.47%. In data set [1] (setting [8]), the activity at 10 µM was determined as 6.84 ± 0.71%. Further, in data set [5], the “Tumor Volume” value is listed as 19.9 ± 5.8 % Control and the “Tumor Weight” value was determined as 23.7 ± 6.0 % Control. In addition, the EROD in data set [6] turned out to be 106.1 ± 22.4 % Control. For the same compound, in data set [7], the “Uterine Wet Weight” value stood at 0.184 ± 0.027 % body weight and the “Liver Weight” value was determined as 3.87 ± 0.22 % body weight.

Take `COc1ccc2[nH]cc(CO)c2c1` [5-Methoxy-I3C, 5-methoxy-indole-3-carbinol]: in data set [1] (setting [9]), the activity at 0.1 µM is 87.6 ± 5.4%, the activity at 1 µM stood at 78.4 ± 11.9%, the activity at 10 µM was determined as 58.9 ± 7.96% and the activity at 50 µM turned out to be 2.97 ± 0.2%. In addition, the activity at 100 µM in data set [1] (setting [9]) came to 0.61 ± 0.14%.

Turning to `Cn1cc(CO)c2ccccc21` [N-Methyl-I3C, N-methyl-indole-3-carbinol], in data set [1] (setting [9]), the activity at 0.1 µM was 95.6 ± 4.26%, the activity at 1 µM stood at 96.2 ± 1.66%, the activity at 10 µM is 47.8 ± 2.13% and the activity at 50 µM was found to be 14.4 ± 0.9%. In data set [1] (setting [9]), the activity at 100 µM stood at 3.91 ± 0.64%.

On to `Cc1ccc2[nH]cc(CO)c2c1` [5-Methyl-I3C, 5-methyl-indole-3-carbinol], for which, in data set [1] (setting [9]), the activity at 0.1 µM amounted to 87.8 ± 11.1%, the activity at 1 µM stood at 81.6 ± 10.8%, the activity at 10 µM was 53 ± 4.24% and the activity at 50 µM was determined as 0.87 ± 0.11%. In data set [1] (setting [9]), the activity at 100 µM was determined as 0.57 ± 0.2%.

For the compound `COc1ccc2[nH]cc(Cc3c[nH]c4ccc(OC)cc34)c2c1` [5-Methoxy-DIM, 5,5'-dimethoxy-diindolylmethane], in data set [1] (setting [8]), the activity at 0.01 µM amounted to 87.2 ± 3.52%, the activity at 0.1 µM is 89.4 ± 3.12%, the activity at 1 µM was 69.4 ± 3.95% and the activity at 5 µM worked out at 37.1 ± 4.52%. Moreover, the activity at 10 µM in data set [1] (setting [8]) is 11.4 ± 1.63%. Further, in data set [5], the “Tumor Volume” value is listed as 22.1 ± 4.4 % Control and the “Tumor Weight” value came to 22.1 ± 4.4 % Control. Moreover, the EROD in data set [6] is recorded as 151.2 ± 43.4 % Control. For the same compound, in data set [7], the “Uterine Wet Weight” value worked out at 0.224 ± 0.034 % body weight and the “Liver Weight” value is on record as 4.16 ± 0.23 % body weight.

For `Cn1cc(Cc2cn(C)c3ccccc23)c2ccccc21` [N-Methyl-DIM, N,N'-dimethyl-diindolylmethane], in data set [1] (setting [8]), the activity at 0.01 µM was 82.8 ± 10.8%, the activity at 0.1 µM was 96.4 ± 2.94%, the activity at 1 µM stood at 78.5 ± 3.03% and the activity at 5 µM amounted to 3.92 ± 0.49%. Besides, the activity at 10 µM in data set [1] (setting [8]) came to 0.85 ± 0.12%.
